Source: patent publication US5712417A, “Inhibitors of retroviral proteases” (Abbott Laboratories, priority 1989, dated 1998)
Where a name gives a salt, the structure may show the parent alone.

These molecules were tested against T1, HIV protease (Human immunodeficiency virus type 1 group M subtype B, UniProt P04585) (assay: Inhibition of HIV protease (cleavage of H-Ser-Phe-Asn-Phe-Opr-Gln-Ile-OH, HPLC)). Settings: inhibitor concentration at which the cleavage rate is halved; pH 6, 2 hours.
T1 construct: HIV protease consists of 99 amino acids and is evidently split off by itself from the pol polyprotein
Format: biochemical
Text: The compounds of the formula (I) according to the invention have enzyme-inhibiting properties. In particular, they inhibit the action of retroviral aspartyl proteases, such as that of HIV protease. Their enzyme-inhibitory action, which is in the milli- to subnanomolar range, can be determined as follows.
The heptapeptide: H-Ser-Phe-Asn-Phe-Pro-Gln-Ile-OH (P. L. Darke et al., Biophys. Res. Commun. 156 (1988) 297-303), inter alia, has hitherto been used as the substrate of HIV protease. HIV protease cleaves the substrate here between the second Phe and Pro.
General instructions for testing inhibitors of HIV proteases: a) Preparation of the substrate solution:
2 mg of H-Ser-Phe-Asn-Phe-Opr-Gln-Ile-OH (H-Opr-OH=5-oxaproline) are dissolved in 1 ml of MGTE15 buffer (use of ultrasound if necessary) and the solution is then filtered over a sterile filter (0.45 μm). […]
b) Preparation of the inhibitor solution:
2.5 times the desired molarity of the inhibitor per ml of solution are weighed out and dissolved in DMSO (10% of the final volume). The solution is diluted to the final volume with MGTE15 buffer and filtered over a sterile filter (0.45 μm). […]
c) Preparation of the protease solution:
5 μl of the HIV protease solution are diluted with MGTE25 buffer as required.
10 μl portions of the substrate solution are pipetted into test-tubes (16×100) with a screw cap. For the blank experiment, 10 μl of MGTE15 buffer containing 10% of DMSO are pipetted into a test-tube. 10 μl portions of the inhibitor solutions are added to the other test-tubes. The mixtures are incubated at 37° C. for 5-10 minutes and 5 μl of the protease solution are then added to each sample, After reaction at 35° C. for 2 hours, 10 or 20 μl (depending on the sensitivity of the HPLC apparatus) of each sample are then pipetted off, introduced into microvials and diluted with 120 μl of the HPLC mobile phase. […]
e) Conditions for the HPLC analysis:
20% (weight/weight) of aceto-
Column: Merck ®LICHROSORB RP18 (5 μm) 250×4
Column temperature: 42° C.
Detector parameters: 215 nm, 0.08 AUF, 18.2° C.
Analysis time: 11 minutes
Retention time of the substrate: 8.1 minutes
Retention time of the N-terminal tetrapeptide: 3.9 minutes
20 mM morpholinoethanesulfonic acid (MES)
15% (weight/volume) of glycerol
0.1% (volume/volume) of Triton ×100
1 mM phenylmethylsulfonyl fluoride (PMSF)
25% (weight/volume) of glycerol, additionally 1 mM dithiothreitol (DTT) The MES, EDTA, NaCl, DTT and PMSF are weighed into a conical flask and dissolved in a little water and the pH is brought to 6. The corresponding amount of glycerol is weighed into a measuring flask and ®Triton ×100 is pipetted in. The aqueous solution is transferred to the measuring flask and made up to the mark with water.
A 0.1M solution is prepared from orthophosphoric acid (FLUKA extra pure analytical grade). This solution is brought to exactly pH 2.5 with triethylamine (FLUKA extra pure analytical grade). The weight of the solution is determined and the corresponding amount of acetonitrile (fume cupboard) is weighed in. The mixture is mixed thoroughly and degassed with helium 5.0 for about 5 minutes.
Under the conditions chosen here, heptapeptides are separated from the N-terminal tetrapeptide formed during enzymatic cleavage. The percentage content of the tetrapeptide peak in respect of the sum of tetrapeptide+heptapeptide corresponds to the cleaving rate. The following IC50 values indicate the inhibitor concentration at which the cleavage rate is halved.

Structure (SMILES) | IC50 [nM]
CC(C)[C@H](NC(=O)[C@H](Cc1ccccc1)NC(=O)[C@H]1CC[C@@H](NC(=O)OC(C)(C)C)CC1)C(=O)N[C@@H](Cc1ccccc1)[C@H](O)[C@@H](O)[C@H](Cc1ccccc1)NC(=O)[C@@H](NC(=O)[C@H](Cc1ccccc1)NC(=O)[C@H]1CC[C@@H](NC(=O)OC(C)(C)C)CC1)C(C)C [Example 50, N,N'-bis-(4Z -N-tert.-Butoxycarbonylamino)-cyclohexanecarbonyl-L-phenylalanyl-L-valyl)-2S, 5S-diamino-1,6-diphenyl-4S, 5S-diol dihydrochloride] | 45

Same assay, conditions: inhibitor concentration at which the cleavage rate is halved; pH 6, 2 hours; read-out: IC50

Structure (SMILES) | IC50 [nM]
CC(C)[C@H](NC[C@@H](N)Cc1ccccc1)C(=O)N[C@@H](Cc1ccccc1)[C@H](O)[C@@H](O)[C@H](Cc1ccccc1)NC(=O)[C@@H](NC[C@@H](N)Cc1ccccc1)C(C)C [Example 28, N,N'-bis-(2S-<2S-Amino-3-phenylpropyl>-amino-3-methyl-butanoyl)-2S,5S-diamino-1,6-diphenylhexane-3S,4S-diol tetrahydrochloride] | 3000
CC(C)[C@H](NC(=O)[C@@H](N)Cc1ccccc1)C(=O)N[C@H](Cc1ccccc1)[C@@H](O)[C@H](O)[C@@H](Cc1ccccc1)NC(=O)[C@@H](NC(=O)[C@@H](N)Cc1ccccc1)C(C)C [Example 30, N,N'-bis-(L-Phenylalanyl-L-valyl)-2R,5R-diamino-1,6-diphenylhexane-3R,4R-diol dihydrochloride] | 30
CC(C)[C@H](NC(=O)[C@H](Cc1ccccc1)NC(=O)OC(C)(C)C)C(=O)N[C@H](Cc1ccccc1)[C@@H](O)[C@H](O)[C@@H](Cc1ccccc1)NC(=O)[C@@H](NC(=O)[C@H](Cc1ccccc1)NC(=O)OC(C)(C)C)C(C)C [Example 33, N,N'-bis-(tert.-Butoxycarbonyl-L-phenylalanyl-L-valyl)-2R,5R-diamino-1,6-diphenylhexane-3R,4R-diol] | 20000
CC(C)[C@H](NC(=O)[C@@H](N)Cc1cccc2ccccc12)C(=O)N[C@@H](Cc1ccccc1)[C@@H](O)[C@H](O)[C@H](Cc1ccccc1)NC(=O)[C@@H](NC(=O)[C@@H](N)Cc1cccc2ccccc12)C(C)C [Example 39, N,N'-bis-(L-(1-Naphthyl)-alanyl-L-valyl)-2S,5S-diamino-1,6-diphenylhexane-3R,4R-diol dihydrochloride] | 1.3
CC(C)[C@H](NC(=O)[C@H](Cc1cccc2ccccc12)NC(=O)OC(C)(C)C)C(=O)N[C@@H](Cc1ccccc1)[C@@H](O)[C@H](O)[C@H](Cc1ccccc1)NC(=O)[C@@H](NC(=O)[C@H](Cc1cccc2ccccc12)NC(=O)OC(C)(C)C)C(C)C [Example 40, N,N'-bis-(tert.-Butoxycarbonyl-L-(1-naphthyl)-alanyl-L-valyl)-2S,5S-diamino-1,6-diphenylhexane-3R,4R-diol] | 13
CC(C)[C@H](NC(=O)[C@@H](N)Cc1ccccc1)C(=O)N[C@@H](CC1CCCCC1)[C@H](O)[C@@H](O)[C@H](CC1CCCCC1)NC(=O)[C@@H](NC(=O)[C@@H](N)Cc1ccccc1)C(C)C [Example 43, N,N'-bis-[L-Phenylalanyl-L-valyl]-2S,5S-diamino-1,6-dicyclohexylhexane-3S,4S-diol dihydrochloride] | 1
CC(C)[C@H](NC(=O)[C@H](Cc1ccccc1)NC(=O)OC(C)(C)C)C(=O)N[C@@H](CC1CCCCC1)[C@H](O)[C@@H](O)[C@H](CC1CCCCC1)NC(=O)[C@@H](NC(=O)[C@H](Cc1ccccc1)NC(=O)OC(C)(C)C)C(C)C [Example 45, N,N'-bis-(tert.-Butoxycarbonyl-L-phenylalanyl-L-valyl)-2S,5S-diamino-1,6-dicyclohexylhexane-3S,4S-diol] | 1500
CC(C)(C)OC(=O)N[C@@H](CC1CCCCC1)[C@H](O)[C@H](O)[C@H](CC1CCCCC1)NC(=O)OC(C)(C)C [Example 48, N,N'-bis-(tert.-Butoxycarbonyl)-2S, 5S-diamino-1,6-dicyclohexylhexane-3R, 4S-diol] | 80000
CC(C)[C@H](NC(=O)[C@H](Cc1cccc2ccccc12)CS(=O)(=O)C(C)(C)C)C(=O)N[C@@H](Cc1ccccc1)[C@H](O)[C@@H](O)[C@H](Cc1ccccc1)NC(=O)[C@@H](NC(=O)[C@H](Cc1cccc2ccccc12)CS(=O)(=O)C(C)(C)C)C(C)C [Example 51, N,N'-bis-<(2S-(1,1-Dimethylethylsulfonylmethyl)-3-(1-naphthyl)-propionyl)-L-valyl>-2S,5S-diamino-1,6-diphenyl-hexane-3S,4S-diol] | 0.8
CC(C)[C@H](NC(=O)[C@@H](Cc1cccs1)CS(=O)(=O)C(C)(C)C)C(=O)N[C@@H](Cc1ccccc1)[C@@H](O)[C@H](O)[C@H](Cc1ccccc1)NC(=O)[C@@H](NC(=O)[C@@H](Cc1cccs1)CS(=O)(=O)C(C)(C)C)C(C)C [Example 54, N,N,-bis-<(2R-(1,1-Dimethylethylsulfonylmethyl)-3-(2-thienyl)-propionyl)-L-valyl>-2S,5S-diamino-1,6-diphenyl-hexane-3R,4R-diol] | 260
CC(C)C[C@H](NC(=O)[C@@H](NC(=O)[C@@H](N)Cc1ccccc1)C(C)C)C(O)C(O)[C@H](CC(C)C)NC(=O)[C@@H](NC(=O)[C@@H](N)Cc1ccccc1)C(C)C (stereo partly drawn) [Example 55, N,N'-bis-(L-Phenylalanyl-L-valyl)-4S,7S-diamino-2,9-dimethyldecane-5,6-dioldihydrochloride] | 1.3
CC(C)[C@H](NC(=O)Cc1ccccn1)C(=O)N[C@@H](Cc1ccccc1)[C@@H](O)[C@H](O)[C@H](Cc1ccccc1)NC(=O)[C@@H](NC(=O)Cc1ccccn1)C(C)C [Example 58, N,N'-bis-<(2-Pyridyl)-acetyl-L-valyl>-2S,5S-diamino-1,6-diphenylhexane-3R,4R-diol] | 49
CC(C)[C@H](NC(=O)CSc1ccncc1)C(=O)N[C@@H](Cc1ccccc1)[C@@H](O)[C@H](O)[C@H](Cc1ccccc1)NC(=O)[C@@H](NC(=O)CSc1ccncc1)C(C)C [Example 59, N,N'-bis-<(4-Pyridylthio)-acetyl-L-valyl>-2S,5S-diamino-1,6-diphenylhexane-3R,4R-diol] | 47
CC(C)[C@H](NC(=O)[C@H](N)Cc1ccccc1)C(=O)N[C@@H](Cc1ccccc1)[C@H](O)[C@@H](O)[C@H](Cc1ccccc1)NC(=O)[C@@H](NC(=O)[C@H](N)Cc1ccccc1)C(C)C [Example 61, N,N'-bis-<D-Phenylalanyl-L-valyl>-2S,5S-diamino-1,6-diphenylhexane-3S,4S-diol dihydrochloride] | 400
CC(C)[C@H](NC(=O)[C@@H](Cc1ccccc1)NC(=O)OC(C)(C)C)C(=O)N[C@@H](Cc1ccccc1)[C@H](O)[C@@H](O)[C@H](Cc1ccccc1)NC(=O)[C@@H](NC(=O)[C@@H](Cc1ccccc1)NC(=O)OC(C)(C)C)C(C)C [Example 63, N,N'-bis-<tert.-Butoxycarbonyl-D-phenylalanyl-L-valyl>-2S,5S-diamino-1,6-diphenylhexane-3S,4S-diol] | 6.5

Same assay, conditions: pH 6; read-out: IC50

Structure (SMILES) | IC50 [nM]
CC(C)[C@H](NC(=O)[C@H](Cc1ccccc1)NC(=O)[C@H]1CC[C@@H](N)CC1)C(=O)N[C@@H](Cc1ccccc1)[C@H](O)[C@@H](O)[C@H](Cc1ccccc1)NC(=O)[C@@H](NC(=O)[C@H](Cc1ccccc1)NC(=O)[C@H]1CC[C@@H](N)CC1)C(C)C [Example 49, N,N'-bis-(4Z-Aminocyclohexanecarbonyl-L-phenylalanyl-L-valyl)-2S, 5S-diamino-1,6-diphenyl-3S, 5S-diol dihydrochloride] | 1.2
